Results reported in patent US4213984A, “11-(Piperazino-acetyl)-5,11-di hydro-6H-pyrido[2,3-b][1,4]benzodiazepin-6-ones and salts thereof” (Boehringer Ingelheim GmbH, priority 1977, dated 1980).

How the values were obtained:
[1] = test system: stress ulcers in rats; assay: inhibiting effect on the formation of stress ulcers in rats (Takagi and Okabe), peroral; assay type: in vivo; conditions: po, rat; for inhibition in vivo at 12.5 mg/kg: 12.5 mgm/kg, read-out: Ulcer inhibition in % (rat) after peroral administration of 12.5 mgm/kg; for inhibition in vivo at 25 mg/kg: 25 mgm/kg, read-out: Ulcer inhibition in % (rat) after peroral administration of 25 mgm/kg; for inhibition in vivo at 50 mg/kg: 50 mgm/kg, read-out: Ulcer inhibition in % (rat) after peroral administration of 50 mgm/kg
Procedure: (§1) The compounds were examined with regard to their inhibiting effect on the formation of stress ulcers in rats and their spasmolytic effect, related to atropine, with consideration of their acute toxicity.
The inhibiting effect on the formation of stress ulcers in rats was determined according to the method of K. Takagi and S. Okabe, Jap.Journ.Pharmac. 18,pp. 9 to 18 (1968). Fed female rats with a body weight between 220 and 260 gm were individually put into small wire cages and were subsequently kept vertically submerged in a water bath which was kept constant at a temperature of 23° C. for 16 hours, so that only the heads and the breastbones of the animals were above the water surface. The test compounds were administered perorally 5 to 10 minutes before. With each substance five animals were treated. 1 ml of a 0.9% physiological sodium chloride solution or 1 ml of a 1% tylose solution was administered to the control animals in the same way. After 18 hours the animals were killed by an overdose of ethyl chloride, the stomachs were excised, cut along the big curvature and spread on a cork plate. The evaluation was carried out according to the methods of Marazzi-Uberti and Turba, Med. Exp. 4, pp. 284 to 292 (1961), and Takagi and Okabe (supra)

[2] = test system: white mice; assay: acute toxicity after peroral administration to fasted white mice; assay type: in vivo; conditions: mouse, six mice per dosage, at the LD50 dose
Procedure: (§2) The acute toxicity was determined after peroral administration of the test substance to fasted white mice with a body weight of 18 to 20 gm. The observation period was 14 days. For each dosage a group of six mice was used.

[3] = as above; assay type: in vivo; conditions: in vivo, po, mouse, observation period 14 days, read-out: LD50 peroral mgm/kg mouse
Procedure: as §2

[4] = test system: guinea pig colon; assay: spasmolytic effect in vitro on the guinea pig colon, acetylcholine-induced spasms, compared with atropinesulfate; conditions: acetylcholine spasm, relative to Atropine = 1
Procedure: as §1
The spasmolytic effect was determined in vitro on the guinea pig colon, using the experimental arrangement according to R. Magnus, Pflugers Archiv, 102, pp. 123 (1904). Acetylcholine was taken to induce spasms, the substance for comparison was atropinesulfate. The spasticum was administered one minute before the administration of the spasmolytic substance, and the spasmolytic was allowed to take effect for 1 minute.

Question: With `O=C1Nc2cccnc2N(C(=O)CN2CCN(CC=Cc3ccccc3)CC2)c2ccccc21` [H, 11-[(4-Cinnamyl-1-piperazinyl)acetyl]-5,11-dihydro-6H-pyrido-[2,3-b][1,4]benzodiazepin-6-one] as the molecule, how does the inhibition in vivo at 12.5 mg/kg [1] read?
Answer: 53%

Question: What about the inhibition in vivo at 25 mg/kg [1] of the same molecule?
Answer: 69%

Question: What about the inhibition in vivo at 50 mg/kg [1] of the same molecule?
Answer: 95%

Question: And the “number of animals that died” value [2]?
Answer: ++++ (means, 4 of 6 animals died)

Question: And the LD50 at 336 h [3]?
Answer: ~3000 mg/kg

Question: What about the “Spasmolysis (acetylcholine) in respect to Atropine = 1” value (“Spasmolysis (acetylcholine)” for short) [4] of the same molecule?
Answer: 1/700

Question: What does the source list for `CN1C(=O)c2ccccc2N(C(=O)CN2CCN(Cc3ccc4c(c3)OCO4)CC2)c2ncccc21` [G, 5,11-Dihydro-5-methyl-11-{[4-(3,4methylenedioxy-benzyl)-1-piperazinyl]acetyl}-6H-pyrido[2,3-b][1,4]benzodiazepin-6-one]?
Answer: inhibition in vivo at 12.5 mg/kg [1]: 21%; inhibition in vivo at 25 mg/kg [1]: 58%; inhibition in vivo at 50 mg/kg [1]: 90%; number of animals that died [2]: +++ (means, 2 of 6 animals died); LD50 at 336 h [3]: > 1500 mg/kg; Spasmolysis (acetylcholine) in respect to Atropine = 1 [4]: 1/290

Question: What does the source list for `CC1CN(C)CCN1CC(=O)N1c2ccccc2C(=O)Nc2cccnc21.Cl` (stereo not drawn) [F, 5,11-Dihydro-11-[(2,4-dimethyl-1-piperazinyl)acetyl]-6H-pyrido-[2,3-b][1,4]benzodiazepin-6-one-hydrochloride]?
Answer: inhibition in vivo at 12.5 mg/kg [1]: 84%; inhibition in vivo at 25 mg/kg [1]: 90%; inhibition in vivo at 50 mg/kg [1]: 95%; number of animals that died [2]: ++ (means, 1 of 6 animals died); LD50 at 336 h [3]: > 3000 mg/kg; Spasmolysis (acetylcholine) in respect to Atropine = 1 [4]: 1/130

Question: For `O=C1Nc2cccnc2N(C(=O)CN2CCN(CC34CC5CC(CC(C5)C3)C4)CC2)c2ccccc21` [D, 11-{[4-(1-Adamantyl-methyl)-1-piperazinyl]acetyl}-5,11-dihydro-6-H-pyrido[2,3-b][1,4]benzodiazepin-6-one], which inhibition in vivo at 12.5 mg/kg [1] is on record?
Answer: 26%

Question: And the inhibition in vivo at 25 mg/kg [1]?
Answer: 47%

Question: And the inhibition in vivo at 50 mg/kg [1]?
Answer: 79%

Question: What about the “number of animals that died” value [2] of the same molecule?
Answer: + (means, 0 of 6 animals died)

Question: And the LD50 at 336 h [3]?
Answer: > 3000 mg/kg

Question: And the “Spasmolysis (acetylcholine)” value [4]?
Answer: 1/86

Question: With `C=C(C)CN1CCN(CC(=O)N2c3ccccc3C(=O)Nc3cccnc32)CC1` [A, 5,11-Dihydro-11-{[4-(2-methyl-allyl)-1-piperazinyl]acetyl}-6H-pyrido[2,3-b][1,4]benzodiazepin-6-one] as the molecule, how does the inhibition in vivo at 12.5 mg/kg [1] read?
Answer: 32%

Question: What about the inhibition in vivo at 25 mg/kg [1] of the same molecule?
Answer: 52%

Question: And the inhibition in vivo at 50 mg/kg [1]?
Answer: 90%

Question: And the “number of animals that died” value [2]?
Answer: + (means, 0 of 6 animals died)

Question: And the LD50 at 336 h [3]?
Answer: > 3000 mg/kg

Question: What about the “Spasmolysis (acetylcholine)” value [4] of the same molecule?
Answer: 1/330

Question: With `CC(C)(C)CN1CCN(CC(=O)N2c3ccccc3C(=O)Nc3cccnc32)CC1` [C, 5,11-Dihydro-11-{[4-(2,2-dimethyl-propyl)-1-piperazinyl]acetyl}-6H-pyrido[2,3-b][1,4]benzodiazepin-6-one] as the molecule, how does the inhibition in vivo at 12.5 mg/kg [1] read?
Answer: 39%

Question: And the inhibition in vivo at 25 mg/kg [1]?
Answer: 61%

Question: What about the inhibition in vivo at 50 mg/kg [1] of the same molecule?
Answer: 95%

Question: And the “number of animals that died” value [2]?
Answer: + (means, 0 of 6 animals died)

Question: What about the LD50 at 336 h [3] of the same molecule?
Answer: > 1500 mg/kg

Question: And the “Spasmolysis (acetylcholine)” value [4]?
Answer: 1/70

Question: For `O=C1Nc2cccnc2N(C(=O)CN2CCN(Cc3ccc4c(c3)OCO4)CC2)c2ccccc21` [E, 5,11-Dihydro-11-{[4-(3,4-methylenedioxy-benzyl)-1-piperazinyl]-acetyl}-6H-pyrido[2,3-b][1,4]benzodiazepin-6-one], which inhibition in vivo at 12.5 mg/kg [1] is on record?
Answer: 37%

Question: What about the inhibition in vivo at 25 mg/kg [1] of the same molecule?
Answer: 73%

Question: What about the inhibition in vivo at 50 mg/kg [1] of the same molecule?
Answer: 95%

Question: And the “number of animals that died” value [2]?
Answer: +++ (means, 2 of 6 animals died)

Question: And the LD50 at 336 h [3]?
Answer: > 3000 mg/kg

Question: And the “Spasmolysis (acetylcholine)” value [4]?
Answer: 1/78

Question: Which inhibition in vivo at 12.5 mg/kg [1] does the source give for `CC(C)=CCN1CCN(CC(=O)N2c3ccccc3C(=O)Nc3cccnc32)CC1.Cl.Cl` [B, 5,11-Dihydro-11-{[4-(3-methyl-but-2-enyl)-1-piperazinyl]acetyl}-6H-pyrido[2,3-b][1,4]benzodiazepin-6-one dihydrochloride] here?
Answer: 52%

Question: And the inhibition in vivo at 25 mg/kg [1]?
Answer: 63%

Question: What about the inhibition in vivo at 50 mg/kg [1] of the same molecule?
Answer: 84%

Question: And the “number of animals that died” value [2]?
Answer: + (means, 0 of 6 animals died)

Question: What about the LD50 at 336 h [3] of the same molecule?
Answer: > 1500 mg/kg

Question: What about the “Spasmolysis (acetylcholine)” value [4] of the same molecule?
Answer: 1/200
